According to the NIST ThermoML archive (doi:10.1016/j.jct.2016.03.040):

Assay: mn = molality of the nth substance listed, in mol/kg
Settings: 100 kPa, Liquid; for speed of sound: Frequency=3 MHz, Sing-around technique in a fixed-path interferometer; for mass density: Vibrating tube method

O=C(N[C@H](CO)[C@H](O)c1ccc([N+](=O)[O-])cc1)C(Cl)Cl + O
Settings | mass density, 288.15 K [kg/m3] | mass density, 298.15 K [kg/m3] | mass density, 308.15 K [kg/m3] | mass density, 318.15 K [kg/m3] | speed of sound, 288.15 K [m/s] | speed of sound, 298.15 K [m/s] | speed of sound, 308.15 K [m/s] | speed of sound, 318.15 K [m/s]
m1 = 0.0005 | 999.273 | 997.209 | 994.205 | 990.372 | 1466.9 | 1496 | 1519.6 | 1536.2
m1 = 0.001 | 999.429 | 997.363 | 994.356 | 990.522 | 1467 | 1496.1 | 1519.7 | 1536.4
m1 = 0.002 | 999.643 | 997.576 | 994.56 | 990.713 | 1467.1 | 1496.2 | 1519.9 | 1536.5
m1 = 0.004 | 999.922 | 997.847 | 994.831 | 990.992 | 1467.5 | 1496.7 | 1520.2 | 1536.8

NCC(=O)O [2-aminoacetic acid] + O
Settings | mass density, 288.15 K [kg/m3] | mass density, 298.15 K [kg/m3] | mass density, 308.15 K [kg/m3] | mass density, 318.15 K [kg/m3] | speed of sound, 288.15 K [m/s] | speed of sound, 298.15 K [m/s] | speed of sound, 308.15 K [m/s] | speed of sound, 318.15 K [m/s]
m1 = 0.01095 | 999.494 | 997.428 | 994.433 | 990.57 | 1467.3 | 1496.5 | 1520 | 1536.6
m1 = 0.02116 | 999.815 | – | 994.686 | 990.869 | 1467.9 | 1497 | 1520.6 | 1537.1
m1 = 0.04014 | 1000.41 | 998.287 | 995.236 | 991.411 | 1469 | 1498 | 1521.5 | 1538
m1 = 0.06033 | 1001.05 | – | 995.832 | 991.989 | 1470.1 | 1499 | 1522.5 | 1539
m1 = 0.08023 | 1001.7 | 999.548 | – | – | 1471.2 | 1500.1 | 1523.5 | 1540
m1 = 0.1006 | 1002.36 | 1000.17 | 997.123 | 993.251 | 1472.4 | 1501.2 | 1524.5 | 1540.9
m1 = 0.15 | 1003.96 | 1001.73 | – | 994.665 | 1475.2 | 1503.8 | 1527 | 1543.3
m1 = 0.2003 | 1005.57 | 1003.28 | 1000.2 | 996.211 | 1478 | 1506.4 | 1529.5 | 1545.7

NCC(=O)NCC(=O)O [glycylglycine] + O
Settings | mass density, 288.15 K [kg/m3] | mass density, 298.15 K [kg/m3] | mass density, 308.15 K [kg/m3] | mass density, 318.15 K [kg/m3] | speed of sound, 288.15 K [m/s] | speed of sound, 298.15 K [m/s] | speed of sound, 308.15 K [m/s] | speed of sound, 318.15 K [m/s]
m1 = 0.01033 | 999.704 | 997.627 | 994.594 | 990.758 | 1467.7 | 1496.8 | 1520.3 | 1536.9
m1 = 0.02031 | 1000.23 | 998.133 | 995.135 | 991.281 | 1468.6 | 1497.7 | 1521.2 | 1537.7
m1 = 0.04035 | 1001.4 | 999.259 | 996.28 | 992.375 | 1470.5 | 1499.5 | 1522.8 | 1539.3
m1 = 0.06012 | 1002.5 | 1000.39 | 997.363 | 993.41 | 1472.4 | 1501.3 | 1524.4 | 1540.8
m1 = 0.0802 | 1003.7 | 1001.51 | 998.463 | 994.52 | 1474.3 | 1503.1 | 1526 | 1542.4
m1 = 0.1011 | 1004.84 | 1002.62 | 999.564 | 995.646 | 1476.3 | 1505 | 1527.7 | 1544
m1 = 0.1502 | 1007.57 | 1005.27 | 1002.18 | 998.186 | 1480.9 | 1509.4 | 1531.8 | 1547.9
m1 = 0.1995 | 1010.2 | 1007.94 | 1004.8 | 1000.72 | 1485.5 | 1513.8 | 1535.8 | 1551.8
